Data on three compounds can be found in patent publication US20210355105A1, “REGULATOR OF NITROGEN-CONTAINING HETEROAROMATIC DERIVATIVES, PREPARATION METHOD THEREFOR AND USE THEREOF” (Jiangsu Hansoh Pharmaceutical Group Co., Ltd., priority 2018, published 2021).

For data set [1], the target named is T1, SHP-2 full-length protein (Homo sapiens, UniProt Q06124).
T1 construct: purchased BPS Bioscience 79330
T1 sequence (Q06124 1-593): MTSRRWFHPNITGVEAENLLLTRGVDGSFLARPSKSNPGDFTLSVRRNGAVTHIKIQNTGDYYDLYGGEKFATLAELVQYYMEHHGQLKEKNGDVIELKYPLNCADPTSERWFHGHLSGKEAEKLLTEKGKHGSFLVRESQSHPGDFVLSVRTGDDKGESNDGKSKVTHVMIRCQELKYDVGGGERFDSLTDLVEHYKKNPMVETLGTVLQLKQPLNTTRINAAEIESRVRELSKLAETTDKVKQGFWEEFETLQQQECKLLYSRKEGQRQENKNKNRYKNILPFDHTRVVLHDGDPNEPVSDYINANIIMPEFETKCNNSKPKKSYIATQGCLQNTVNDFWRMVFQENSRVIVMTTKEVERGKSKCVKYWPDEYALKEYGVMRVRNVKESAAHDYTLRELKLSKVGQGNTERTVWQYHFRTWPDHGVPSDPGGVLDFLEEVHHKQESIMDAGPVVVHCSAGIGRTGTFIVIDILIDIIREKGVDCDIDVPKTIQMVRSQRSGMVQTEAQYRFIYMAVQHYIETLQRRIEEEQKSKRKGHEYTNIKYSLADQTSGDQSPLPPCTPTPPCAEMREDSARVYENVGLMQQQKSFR
Put plainly: Inhibition of SHP-2 kinase activity (Homogeneous Full Length SHP-2 Assay Kit). The class given is biochemical. Conditions: relative IC50, full-length SHP-2 with activating peptide. The procedure:
The objective of this test is to determine the inhibitory effect of the compounds on SHP-2 full-length protein allosteric activity.
Experimental method: Homogeneous Full Length SHP-2 Assay Kit (BPS Bioscience, #79330) was used to determine the in vitro SHP-2 activity. First, 18 μL of Master Mix was added to a 96-well low adsorption microplate (NUNC, #267342), i.e., the reaction buffer with a final concentration of 1× comprised 0.5 μM SHP-2 activating Peptide and 5 mM DTT. After centrifugation, 5 μL of test compound/DMSO was added to each well (the final DMSO content was 1%, V/V, the test compound was dissolved in DMSO to 1 mM, a three-fold serial dilution was carried out to obtain ten concentrations, the final concentration of the reaction system ranged from 1 μM to 0.05 nM). SHP-2 was diluted in the 1× reaction buffer to a final concentration of 0.06 nM, and the resulting solution was added to the reaction microplate (2 μL per well). Full activity control (compound only with DMSO) and full inhibition control (no SHP-2) were set up on the reaction plate. After centrifugation, the reaction mixture was incubated at room temperature for 60 minutes.
After completion of the incubation, 25 μL of Substrate solution, which comprised Substrate with a final concentration of 10 μM and 5 mM DTT, was added to each well. After centrifugation, the reaction mixture was incubated at room temperature for 30 minutes. After completion of the reaction, readings were measured on the Synergy H1 full-function microplate reader (BioTek) (excitation wavelength: 340 nm, emission wavelength: […], gain value: 75).
The IC50 value of the test compounds was calculated by fitting the percentage inhibition rate and data of ten concentrations to a four-parameter nonlinear logic formula with GraphPad prism.

For a further data set, the target named is T2, hERG potassium channel (Homo sapiens, UniProt Q12809).
T2 construct: expressed in transfected cells; host or cells: CHO-hERG cells
T2 sequence (Q12809 whole entry): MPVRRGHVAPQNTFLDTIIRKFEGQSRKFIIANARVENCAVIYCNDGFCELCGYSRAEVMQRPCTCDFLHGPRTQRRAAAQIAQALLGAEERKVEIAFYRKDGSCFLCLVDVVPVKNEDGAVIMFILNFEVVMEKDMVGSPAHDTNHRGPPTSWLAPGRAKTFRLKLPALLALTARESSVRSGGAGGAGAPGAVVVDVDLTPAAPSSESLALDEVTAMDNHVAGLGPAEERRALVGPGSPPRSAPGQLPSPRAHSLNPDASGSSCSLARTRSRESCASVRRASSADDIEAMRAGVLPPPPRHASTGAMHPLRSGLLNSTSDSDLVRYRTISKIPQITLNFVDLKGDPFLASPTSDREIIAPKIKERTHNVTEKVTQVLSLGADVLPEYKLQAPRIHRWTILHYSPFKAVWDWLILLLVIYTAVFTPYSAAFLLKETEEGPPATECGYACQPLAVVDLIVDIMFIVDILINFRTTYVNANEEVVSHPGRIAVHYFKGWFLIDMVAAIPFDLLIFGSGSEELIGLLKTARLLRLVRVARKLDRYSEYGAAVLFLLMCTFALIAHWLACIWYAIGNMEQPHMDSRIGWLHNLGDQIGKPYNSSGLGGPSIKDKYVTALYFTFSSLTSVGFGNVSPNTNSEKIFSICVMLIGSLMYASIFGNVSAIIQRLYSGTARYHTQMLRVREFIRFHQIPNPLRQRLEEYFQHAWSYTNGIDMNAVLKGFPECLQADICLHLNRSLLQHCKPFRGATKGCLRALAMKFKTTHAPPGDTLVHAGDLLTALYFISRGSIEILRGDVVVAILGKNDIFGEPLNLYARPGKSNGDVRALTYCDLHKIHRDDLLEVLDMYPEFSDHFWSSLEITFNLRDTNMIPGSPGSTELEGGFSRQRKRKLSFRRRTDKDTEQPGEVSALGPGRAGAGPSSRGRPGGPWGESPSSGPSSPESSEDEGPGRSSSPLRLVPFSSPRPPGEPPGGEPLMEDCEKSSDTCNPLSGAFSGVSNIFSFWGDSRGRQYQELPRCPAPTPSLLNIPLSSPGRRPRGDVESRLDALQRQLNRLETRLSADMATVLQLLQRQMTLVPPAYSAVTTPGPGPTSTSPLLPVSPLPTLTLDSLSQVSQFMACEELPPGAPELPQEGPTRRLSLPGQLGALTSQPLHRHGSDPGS
In words: Inhibitory activity on hERG potassium channel (Qpatch, CHO-hERG cells). The data set is classed as cell-based. Conditions: six concentrations up to 40 μM, read-out: hERG (inhibitory effect on hERG current). The procedure:
8.1.1 CHO-hERG cells were cultured in a 175 cm^2 culture flask. When the cells were grown to a density of 60 to 80%, the culture solution was removed, and the cells were washed once with 7 mL of PBS, and then 3 mL of Detachin was added for digestion of the cells.
8.1.2 After the digestion was complete, the cells were neutralized by adding 7 mL of the culture solution and then centrifuged. The supernatant was removed, and then 5 mL of the culture solution was added for resuspension to ensure a cell density of 2-5×10^6 cells/mL.
The single-cell high-impedance sealing and whole-cell pattern formation processes were both completed automatically by the Qpatch instrument. After the whole-cell recording pattern was obtained, the cells were clamped at −80 millivolts. A pre-voltage of −50 millivolts was applied for 50 milliseconds prior to the application of a depolarizing stimulus of +40 millivolts for 5 seconds, and then the cells were repolarized to −50 millivolts and maintained for 5 seconds, and then returned back to −80 millivolts. This voltage stimulation was applied every 15 seconds, and data were recorded for 2 minutes, and thereafter the extracellular fluid was administered and data were recorded for 5 minutes, and then the administration process was started. The compound was administered from the lowest test concentration, and 2.5 minutes were given for each test concentration. After all the concentrations of the compound were administered, […] Cisapride as a positive control compound was administered. At least three cells (n≥3) were tested for each concentration.
8.4.1 20 mM compound mother solution was diluted with the extracellular fluid. 5 μL of the 20 mM compound mother solution was diluted 500 times to 40 μM by adding 2495 μL of the extracellular fluid, and then 3-fold serial dilutions were performed sequentially in the extracellular fluid containing 0.2% DMSO to obtain a final concentration to be tested.
8.4.2 The highest test concentration was 40 μM, and there were six concentrations in total, i.e., 40, 13.33, 4.44, 1.48, 0.49, and […], respectively.
The experimental data were analyzed by XLFit software.
In general terms: Block of hERG is tested as a sign of cardiac risk.

Data set [2] has as its system human pancreatic cancer cell MiaPaca 2 xenograft. In words: Tumor inhibition test on MiaPaca 2 xenograft model. The class given is in vivo, Balb/c nude mice. Particulars: 6 mg/kg QD × 3 w, intragastric. Here is the method:
Balb/c nude mice were used as test animals. In vivo pharmacodynamic test was carried out on human pancreatic cancer cell MiaPaca 2 xenograft (CDX) model to evaluate the anti-tumor effect of the test compounds.
MiaPaca 2 cells were taken from the cell bank and thawed. The cells were added to the DMEM medium (containing 10% FBS, 1% Glu and 1% P/S), and incubated in the CO2 incubator (the temperature of the incubator was 37° C., and the CO2 concentration was 5%). After the cells covered 80-90% of the bottom of the culture flask, the cells were passaged. After passage, the cells continued to be incubated in the CO2 incubator. The process was repeated until the number of cells met the inoculation requirement of the in vivo pharmacodynamic test. The cells in logarithmic growth phase were collected, and counted by the automatic cell counter. According to the counting results, the cells were resuspended with PBS and Matrigel (volume ratio: 1:1) to obtain a cell suspension (density: 8×10^7/ml), which was placed in an ice box for later use.
Female Balb/c nude mice (6-8 weeks old, body weight: about 18-22 grams) were used as test animals. The mice were maintained in an environment free of special pathogens and in a single ventilated cage (five mice per cage). All cages, bedding and water were disinfected before use. All animals had free access to standard certified commercial laboratory animal diets. The nude mice were marked with a disposable universal ear tag for rats and mice before the test. The skin of the inoculation site was disinfected with 75% medical alcohol before the inoculation. Each mouse was inoculated with 0.1 ml of MiaPaca 2 tumor cells (containing 8*10^6 cells) subcutaneously on the right back. When the average tumor volume reached 100 to 200 mm^3, administration was carried out. The test compounds were administered intragastrically daily. The tumor volume (mm^3) was measured with the vernier caliper twice a week. The tumor volume calculation formula: V=0.5*D*d*d, wherein D and d represent the long diameter and short diameter of the tumor, respectively. The anti-tumor efficacy was determined by dividing the average tumor increase volume of the compound-treated animals by the average tumor increase volume of the untreated animals. Tumor growth inhibition rate calculation formula: […]
All animals were euthanized after the experiment.

The subject of the next data set is NCI-H358 cells. In words: Proliferation inhibition of NCI-H358 cells (CellTiter-Glo). The class given is cell-based. Particulars: Homo sapiens, NCI-H358, 72 h; 3 days incubation. Here is the method:
Experimental method: 3000 cells (90 μL of cell suspension) were inoculated to each well of a 96-well cell culture plate (Corning, #3610). The culture plate was incubated in an incubator overnight (37° C., 5% CO2). On the next day, 10 μL of gradient dilutions of the test compound solution (the final DMSO content was 0.2%, V/V, the final concentration of the reaction system ranged from 10 μM to 4.5 nM) was added to each well of the culture plate. At the same time, full activity control (compound only with DMSO) and full inhibition control (no cells) were set up on the reaction plate. The culture plate was incubated in the incubator for 3 days (37° C., 5% CO2).
After completion of the incubation, 50 μL of CellTiter-Glo reagent was added to each well of the cell culture plate, which was left to stand at room temperature for 10 minutes. The chemiluminescence signal value was measured in the Synergy H1 full-function microplate reader (BioTek). […] The IC50 value of the test compounds was calculated by fitting the percentage inhibition rate and data of eight concentrations to a four-parameter nonlinear logic formula with GraphPad prism.
The IC50 value was calculated by fitting the data of different concentrations and corresponding percentage inhibition rates to a four-parameter nonlinear logic formula with GraphPad prism.

The nature of data set [3]: Pharmacokinetics assay in mice, oral administration. The data set is classed as in vivo. Particulars: mouse; male Balb/c mice, oral 5 mg/kg, plasma. The procedure:
Balb/c mice were used as test animals.
5 g of hydroxyethyl cellulose (HEC, CMC-Na, viscosity: 800-1200 Cps) was dissolved in 1000 mL of purified water, and 10 g of Tween80 was added. The solution was mixed well to form a clear solution. […] The solution was subjected to ultrasound for 10 minutes to obtain a colorless and clear solution with a concentration of 0.5 mg/mL.
After an overnight fast, male Balb/c mice were administrated orally with the test compounds at an administration dose of 5 mg/kg and an administration volume of 10 mL/kg.
Blood was taken before administration and at 0.25 hour, 0.5 hour, 1 hour, 2 hours, 4 hours, 6 hours, 8 hours and 24 hours after administration. The blood samples were stored in EDTA-2K tubes, and centrifuged for 6 minutes at 6000 rpm, at 4° C. to separate the blood plasma. The plasma samples were stored at −80° C. The mice were fed four hours after administration.

Data set [4] can be described thus: Pharmacokinetics assay in rats, oral administration. Particulars: rat; male SD rats, oral 5 mg/kg, plasma. The data set is classed as in vivo. The procedure:
SD rats were used as test animals.
5 g of hydroxyethyl cellulose (HEC, CMC-Na, viscosity: 800-1200 Cps) was dissolved in 1000 mL of purified water, and 10 g of Tween80 was added. The solution was mixed well to form a clear solution.
The solution was shaked well and subjected to ultrasound for 15 minutes to obtain a colorless and clear solution with a concentration of 0.5 mg/mL.
After an overnight fast, male SD rats (3 rats per group) were administrated orally with the test compounds at an administration dose of 5 mg/kg and an administration volume of 10 mL/kg.
0.2 mL of blood was taken from jugular vein before administration and at 0.5 hour, 1.0 hour, 2.0 hours, 4.0 hours, 6.0 hours, 8.0 hours and 24.0 hours after administration. The blood samples were stored in EDTA-2K tubes, and centrifuged for 6 minutes at 6000 rpm, at 4° C. to separate the blood plasma. The plasma samples were stored at −80° C. The rats were fed four hours after administration.

As to `Cc1nc(Sc2ccnc(N)c2Cl)c(N)nc1N1CCC2(CC1)Cc1ccccc1[C@H]2N` [Example 96, (S)-1′-(6-amino-5-((2-amino-3-chloropyridin-4-yl)thio)-3-methylpyrazin-2-yl)-1,3-dihydrospiro[indene-2,4′-piperidin]-1-amine], in data set [1], the IC50 worked out at 9.28 nM. For the same compound, the IC50 on hERG potassium channel was found to be 5240 nM. In data set [2], the “Tumor volume (Mean ± SD) Day 0” value was 170 ± 28 (171 ± 25) mm^3, the “TGI Day 21” value is reported as 97.76%, the “Tumor volume (Mean ± SD) Day 21” value was 183 ± 70 mm^3 and the “ΔT/ΔC Day 21” value worked out at 2.24%. Further, in the data set with NCI-H358 cells, the IC50 is 13.4 nM.
As for `Nc1nc(N2CCC3(CC=C(C4CC4)[C@H]3N)CC2)cnc1Sc1ccnc(N)c1Cl` [Example 143, (S)-8-(6-amino-5-((2-amino-3-chloropyridin-4-yl)thio)pyrazin-2-yl)-2-cyclopropyl-8-azaspiro[4.5]dec-2-en-1-amine], the IC50 in data set [1] stood at 3.8 nM. In addition, the IC50 on hERG potassium channel was 6170 nM. In data set [2], the “Tumor volume (Mean ± SD) Day 0” value was 166 ± 27 (168 ± 32) mm^3, the “TGI Day 21” value amounted to 95.64%, the “Tumor volume (Mean ± SD) Day 21” value is listed as 196 ± 62 mm^3 and the “ΔT/ΔC Day 21” value is 4.36%. Besides, the IC50 with NCI-H358 cells stood at 23.3 nM.
On to `Nc1nc(N2CCC3(CC2)Cc2ncccc2[C@H]3N)c(F)nc1Sc1ccnc(N)c1Cl` [Example 180, (S)-1′-(6-Amino-5-((2-amino-3-chloropyridin-4-yl)thio)-3-fluoropyrazin-2-yl)-5,7-dihydrospiro[cyclopenta[b]pyridine-6,4′-piperidin]-5-amine], for which the IC50 in data set [1] came out at 9.29 nM. In data set [3], the AUC(0-inf) worked out at 5980 ng·h/mL, the concentration peaked (Cmax) at 996 ng/mL, the MRT is 5.15 h and the Tmax came out at 0.5 h. This compound also had a half-life in data set [3] of 3.92 h. Also, in data set [4], the AUC(0-inf) is 6250 ng·h/mL, the peak level (Cmax) was 666 ng/mL, the MRT was 5.67 h and the Tmax was found to be 1 h. This compound gave a half-life in data set [4] of 4.12 h. Besides, the IC50 with NCI-H358 cells is 79.9 nM.

For orientation: AUC(0-inf) means the area under the concentration-time curve extrapolated to infinity. Higher therefore signals high exposure. The term Cmax denotes the highest concentration seen after dosing. In general, MRT refers to a mean duration of stay, worked out from the concentration-time curve. By Tmax is commonly meant the time from dosing to the highest level. One may read the half-life as the time needed for the level to fall by half in the phase considered. Read a low half-life as fast loss.
